Residues, ends and D or L forms follow the SMILES beside them.
Legend:
Type in all cases: biochemical
pKC = test: Kinase specificity assay; conditions: 500 μM, substrate histone
Description: (§1) Cellular extracts were prepared by scraping cells in lysis buffer (20 mM Tris-acetate, 1 mM EGTA, 1% Triton X-100, 10 mM p-nitrophenyl-phosphate, 5 mM sodium pyrophosphate, 10 mM β-glycerophosphate, 1 mM dithiothreitol). 25 μg samples were incubated for 1 hour at room temperature with 1 μg GST-c-Jun (amino acid residues 1-89) and 10 μL glutathione-agarose beads (Sigma). The beads were washed four times and then resuspended in the lysis buffer described above. In vitro kinase assays were then performed using recombinant JNK1α1 and 0.5 μg of a substrate selected from the group consisting of GST-fusion proteins (e.g., GST-Jun and GST-Elk1 fusion proteins), casein and histone (Sigma). Reactions were initiated with 10 mM MgCl2 and 10 μM ATP in the presence of 5 μCi ^33P-ATP, and were incubated for 30 minutes at 30° C. The reaction products were separated by SDS-PAGE, and the gels were dried and then exposed to X-ray films (Kodak).
In vitro experiments were performed to determine the specificity of the JNKI peptides in blocking JNK activation. In particular, the effect of these peptides on the activity of 40 different kinases (10 μM peptides, 10 μM ATP) towards their respective substrates was tested. The complete list of substrates used in these experiments can be found on the world wide web at www.upstate.com/img/pdf/KinaseProfiler.pdf. […]

recombinant JNK1α1 = recombinant JNK1α1 (Homo sapiens, UniProt P45983); test: In vitro kinase assay with recombinant JNK1α1
Description: as §1
The terms “P-Jun” and “P-Elk1,” as used herein, refer to the radiolabeled (i.e., phosphorylated with ^33P-ATP) forms of GST-Jun and GST-Elk1 substrates, respectively.

caK = test: Kinase specificity assay; conditions: 500 μM, substrate caseine
Description: as §1
(§2) In vitro experiments were performed to determine the specificity of the JNKI peptides in blocking JNK activation. […] The complete list of substrates used in these experiments can be found on the world wide web at www.upstate.com/img/pdf/KinaseProfiler.pdf. […] The substrates for these kinases are ERK2:ERK1; p38:ATF2; p34, pKC, pKA:histone; and caK:caseine. […] For a discussion of other small chemical inhibitors of the Jun N-terminal kinase (JNK), See Bennett et al., Proc. Natl. Acad. Sci. (USA), 98:13681-86 (2001), hereby incorporated by reference in its entirety.

p34 = p34 (Homo sapiens, UniProt P06493); test: Kinase specificity assay; conditions: 500 μM, substrate histone
Description: as §1, §2

ERK2 = ERK2 (Homo sapiens, UniProt P28482); test: Kinase specificity assay; conditions: 500 μM
Description: as §1, §2

p38 = p38 (Homo sapiens, UniProt Q16539); test: Kinase specificity assay; conditions: 500 μM, substrate ATF2
Description: as §1, §2

Sequence of recombinant JNK1α1 (P45983 1-384 isoform P45983-2, species assumed): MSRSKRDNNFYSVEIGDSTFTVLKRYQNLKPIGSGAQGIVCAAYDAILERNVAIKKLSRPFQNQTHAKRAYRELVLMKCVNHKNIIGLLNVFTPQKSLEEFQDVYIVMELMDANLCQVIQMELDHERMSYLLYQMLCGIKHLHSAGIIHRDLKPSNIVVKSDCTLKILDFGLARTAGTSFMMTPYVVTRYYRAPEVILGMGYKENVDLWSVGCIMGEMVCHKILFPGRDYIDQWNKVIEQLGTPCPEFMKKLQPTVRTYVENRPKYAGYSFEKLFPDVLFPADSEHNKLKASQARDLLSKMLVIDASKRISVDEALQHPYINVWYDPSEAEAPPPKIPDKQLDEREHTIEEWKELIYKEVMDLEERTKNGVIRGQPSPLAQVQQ
Sequence of p38 (Q16539 whole entry): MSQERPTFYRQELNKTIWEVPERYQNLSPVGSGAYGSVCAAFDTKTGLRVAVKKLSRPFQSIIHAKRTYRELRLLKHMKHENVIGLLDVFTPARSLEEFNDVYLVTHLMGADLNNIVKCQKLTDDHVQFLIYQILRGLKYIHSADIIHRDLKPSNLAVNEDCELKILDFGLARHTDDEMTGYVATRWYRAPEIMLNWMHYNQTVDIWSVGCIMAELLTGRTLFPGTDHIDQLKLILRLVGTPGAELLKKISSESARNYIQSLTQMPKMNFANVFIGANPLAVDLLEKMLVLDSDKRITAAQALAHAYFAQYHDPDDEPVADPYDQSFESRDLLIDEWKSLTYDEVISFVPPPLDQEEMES
Sequence of p34 (P06493 whole entry): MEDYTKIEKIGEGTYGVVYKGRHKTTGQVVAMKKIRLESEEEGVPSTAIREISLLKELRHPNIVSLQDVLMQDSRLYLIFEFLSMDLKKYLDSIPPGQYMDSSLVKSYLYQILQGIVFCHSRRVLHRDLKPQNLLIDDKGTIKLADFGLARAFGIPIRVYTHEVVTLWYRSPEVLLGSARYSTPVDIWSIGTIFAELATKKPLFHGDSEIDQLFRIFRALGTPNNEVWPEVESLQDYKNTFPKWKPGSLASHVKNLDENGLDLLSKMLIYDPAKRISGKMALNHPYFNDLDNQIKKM
Sequence of ERK2 (P28482 whole entry, species assumed): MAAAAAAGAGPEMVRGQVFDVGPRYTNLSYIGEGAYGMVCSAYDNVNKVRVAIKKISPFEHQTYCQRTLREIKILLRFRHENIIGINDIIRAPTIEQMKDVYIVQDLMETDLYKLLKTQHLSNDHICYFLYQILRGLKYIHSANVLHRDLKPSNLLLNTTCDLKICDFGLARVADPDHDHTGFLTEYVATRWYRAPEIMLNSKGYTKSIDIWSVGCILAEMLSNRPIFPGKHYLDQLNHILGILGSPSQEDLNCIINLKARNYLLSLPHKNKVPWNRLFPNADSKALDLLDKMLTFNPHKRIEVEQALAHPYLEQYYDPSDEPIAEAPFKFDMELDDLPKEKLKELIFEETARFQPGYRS

## CC(C)C[C@H](NC(=O)[C@H](CC(N)=O)NC(=O)[C@H](CC(C)C)NC(=O)[C@@H](NC(=O)[C@@H](NC(=O)[C@@H]1CCCN1C(=O)[C@H](CCCNC(=N)N)NC(=O)[C@H](CCCCN)NC(=O)[C@@H]1CCCN1C(=O)[C@@H](N)CCCNC(=N)N)[C@@H](C)O)[C@@H](C)O)C(=O)N[C@@H](Cc1ccccc1)C(=O)N1CCC[C@H]1C(=O)N[C@@H](CCC(N)=O)C(=O)N[C@H](C(=O)N1CCC[C@H]1C(=O)N[C@@H](CCCNC(=N)N)C(=O)N[C@@H](CO)C(=O)N[C@@H](CCC(N)=O)C(=O)N[C@@H](CC(=O)O)C(=O)N[C@H](C(=O)O)[C@@H](C)O)C(C)C [L-JBD20, RPKRPTTLNL FPQVPRSQDT] (H-RPKRPTTLNLFPQVPRSQDT-OH)
pKC
  interference with activity of pKC: did not interfere with the activity
Recombinant JNK1α1; JNK targets ATF2, IRS-1, MADD, bcl-xl, each case, data not shown
  IC50: ~1000 nM
Recombinant JNK1α1; dose response
  inhibition of JNK action without the TAT sequence: can inhibit JNK action
caK
  interference with activity of caK: did not interfere with the activity
p34
  interference with activity of p34: did not interfere with the activity
ERK2
  interference with activity of ERK2: did not interfere with the activity
p38
  interference with activity of p38: did not interfere with the activity

From patent publication US8569447B2, “Cell-permeable peptide inhibitors of the JNK signal transduction pathway” (Xigen SA, priority 2003, dated 2013)
